In brackets after ≈: the same amount, converted by molar mass.

The assay deals with P388. The assay is described as follows: Effect against cell growth of the P388 lymphocytic leukemia (PS system). To be noted: Mus musculus, read-out: ED50 (the source's name). It counts as functional.
Regarding `CC[C@@H](C)[C@@H]([C@@H](CC(=O)N1CCC[C@H]1[C@@H](OC)[C@@H](C)C(=O)N[C@@H](Cc1ccccc1)c1nccs1)OC)N(C)C(=O)[C@@H](NC(=O)[C@H](C(C)C)N(C)C)C(C)C`, the EC50 came out at 3.9 ng/mL (≈ 4.97 nM).

Regarding `CC[C@@H](C)[C@@H]([C@@H](CC(=O)N1CCC[C@H]1[C@H](OC)[C@H](C)C(=O)N[C@@H](Cc1ccccc1)c1nccs1)OC)N(C)C(=O)[C@@H](NC(=O)[C@H](C(C)C)N(C)C)C(C)C`, the EC50 was 5.6 ng/mL (≈ 7.13 nM).

Turning to `CC[C@@H](C)[C@H]([C@H](CC(=O)N1CCC[C@H]1[C@H](OC)[C@@H](C)C(=O)N[C@@H](Cc1ccccc1)c1nccs1)OC)N(C)C(=O)[C@@H](NC(=O)[C@H](C(C)C)N(C)C)C(C)C`, the EC50 was 3.2 ng/mL (≈ 4.08 nM). Consider `CCC(C)[C@H]([C@H](CC(=O)N1CCC[C@H]1[C@H](OC)[C@@H](C)C(=O)N[C@@H](Cc1ccccc1)c1nccs1)OC)N(C)C(=O)[C@@H](NC(=O)[C@H](C(C)C)N(C)C)C(C)C` (some centres undefined), for which the EC50 came out at 3.2 ng/mL (≈ 4.08 nM).

Take `CCC(C)[C@@H]([C@@H](CC(=O)N1CCC[C@H]1[C@H](OC)[C@H](C)C(=O)N[C@@H](Cc1ccccc1)c1nccs1)OC)N(C)C(=O)[C@@H](NC(=O)[C@H](C(C)C)N(C)C)C(C)C` (some centres undefined): the EC50 stood at 1.6 ng/mL (≈ 2.04 nM). In the case of `CCC(C)[C@H]([C@@H](CC(=O)N1CCC[C@H]1[C@H](OC)[C@H](C)C(=O)N[C@@H](Cc1ccccc1)c1nccs1)OC)N(C)C(=O)[C@@H](NC(=O)[C@H](C(C)C)N(C)C)C(C)C` (some centres undefined), the EC50 is above 1000 ng/mL.

As for `CCC(C)[C@H]([C@H](CC(=O)N1CCC[C@H]1[C@H](OC)[C@H](C)C(=O)N[C@@H](Cc1ccccc1)c1nccs1)OC)N(C)C(=O)[C@@H](NC(=O)[C@H](C(C)C)N(C)C)C(C)C` (some centres undefined), the EC50 is 270 ng/mL (≈ 344 nM).

With `CCC(C)[C@@H]([C@H](CC(=O)N1CCC[C@H]1[C@H](OC)[C@H](C)C(=O)N[C@@H](Cc1ccccc1)c1nccs1)OC)N(C)C(=O)[C@@H](NC(=O)[C@H](C(C)C)N(C)C)C(C)C` (some centres undefined), the EC50 came out at 620 ng/mL (≈ 790 nM).

As to `CC[C@@H](C)[C@H]([C@H](CC(=O)N1CCC[C@H]1[C@@H](OC)[C@H](C)C(=O)N[C@@H](Cc1ccccc1)c1nccs1)OC)N(C)C(=O)[C@@H](NC(=O)[C@H](C(C)C)N(C)C)C(C)C`, the EC50 turned out to be 630 ng/mL (≈ 802 nM).

As for `CC[C@@H](C)[C@@H]([C@H](CC(=O)N1CCC[C@H]1[C@H](OC)[C@@H](C)C(=O)N[C@@H](Cc1ccccc1)c1nccs1)OC)N(C)C(=O)[C@@H](NC(=O)[C@H](C(C)C)N(C)C)C(C)C`, the EC50 was found to be 600 ng/mL (≈ 764 nM).

For `CC[C@@H](C)[C@H]([C@H](CC(=O)N1CCC[C@H]1[C@@H](OC)[C@@H](C)C(=O)N[C@@H](Cc1ccccc1)c1nccs1)OC)N(C)C(=O)[C@@H](NC(=O)[C@H](C(C)C)N(C)C)C(C)C`, the EC50 came out at 200 ng/mL (≈ 255 nM).

As to `CC[C@@H](C)[C@@H]([C@@H](CC(=O)N1CCC[C@H]1[C@H](OC)[C@@H](C)C(=O)N[C@@H](Cc1ccccc1)c1nccs1)OC)N(C)C(=O)[C@@H](NC(=O)[C@H](C(C)C)N(C)C)C(C)C`, the EC50 was found to be 0.049 ng/mL (≈ 0.0624 nM). Turning to `CC[C@@H](C)[C@H]([C@H](CC(=O)N1CCC[C@H]1[C@H](OC)[C@H](C)C(=O)N[C@@H](Cc1ccccc1)c1nccs1)OC)N(C)C(=O)[C@@H](NC(=O)[C@H](C(C)C)N(C)C)C(C)C`, the EC50 was found to be 150 ng/mL (≈ 191 nM). The value for `CC[C@@H](C)[C@@H]([C@H](CC(=O)N1CCC[C@H]1[C@H](OC)[C@H](C)C(=O)N[C@@H](Cc1ccccc1)c1nccs1)OC)N(C)C(=O)[C@@H](NC(=O)[C@H](C(C)C)N(C)C)C(C)C` was 410 ng/mL (≈ 522 nM); that for `CC[C@@H](C)[C@H]([C@@H](CC(=O)N1CCC[C@H]1[C@@H](OC)[C@H](C)C(=O)N[C@@H](Cc1ccccc1)c1nccs1)OC)N(C)C(=O)[C@@H](NC(=O)[C@H](C(C)C)N(C)C)C(C)C` was above 1000 ng/mL; that for `CC[C@@H](C)[C@H]([C@@H](CC(=O)N1CCC[C@H]1[C@H](OC)[C@H](C)C(=O)N[C@@H](Cc1ccccc1)c1nccs1)OC)N(C)C(=O)[C@@H](NC(=O)[C@H](C(C)C)N(C)C)C(C)C` was above 1000 ng/mL.

For `CC[C@@H](C)[C@@H]([C@@H](CC(=O)N1CCC[C@H]1[C@@H](OC)[C@H](C)C(=O)N[C@@H](Cc1ccccc1)c1nccs1)OC)N(C)C(=O)[C@@H](NC(=O)[C@H](C(C)C)N(C)C)C(C)C`, the EC50 stood at 39 ng/mL (≈ 49.7 nM). In the case of `CC[C@@H](C)[C@@H]([C@H](CC(=O)N1CCC[C@H]1[C@@H](OC)[C@H](C)C(=O)N[C@@H](Cc1ccccc1)c1nccs1)OC)N(C)C(=O)[C@@H](NC(=O)[C@H](C(C)C)N(C)C)C(C)C`, the EC50 is above 1000 ng/mL. Consider `CC[C@H](C)[C@@H]([C@@H](CC(=O)N1CCC[C@H]1[C@H](OC)[C@@H](C)C(=O)N[C@@H](Cc1ccccc1)c1nccs1)OC)N(C)C(=O)[C@@H](NC(=O)[C@H](C(C)C)N(C)C)C(C)C` [DOLASTATIN-10], for which the EC50 stood at 1 ng/mL (≈ 1.27 nM).
